# According to publication PMC5513037, “Examining the influence of specificity ligands and ATP-competitive ligands on the overall effectiveness of bivalent kinase inhibitors” (Proteome Science, 2017):
# Experiments:
# Test in all cases: KAM-matrix competition in K562 lysate;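 for 0.001 uM KAM: median log10 fold change of treatment over DMSO control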;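 for 0.01 uM KAM: median log10 fold change of treatment over DMSO control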;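 for 0.1 uM KAM: median log10 fold change of treatment over DMSO control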;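 for 1 uM KAM: median log10 fold change of treatment over DMSO control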;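 for 10 uM KAM: median log10 fold change of treatment over DMSO control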
# Type in all cases: binding
# [1] = biological target: T1, BCR (Homo sapiens, UniProt P00519+P11274)
# T1 construct: ABL1 (fusion partner in BCR-ABL); endogenous in cells; host or cells: K562 lysate
# Protocol: (§1) Supplement 12953_2017_125_MOESM1_ESM.zip/MS_Supp Info.xlsx, sheet "KAM" | column: 10 uM KAM; 1 uM KAM; 0.1 uM KAM; 0.01 uM KAM; 0.001 uM KAM; RB50
# [2] = biological target: T2, DDR1 (Homo sapiens, UniProt Q08345)
# T2 construct: endogenous in cells; host or cells: K562
# T2 sequence (Q08345 19-913): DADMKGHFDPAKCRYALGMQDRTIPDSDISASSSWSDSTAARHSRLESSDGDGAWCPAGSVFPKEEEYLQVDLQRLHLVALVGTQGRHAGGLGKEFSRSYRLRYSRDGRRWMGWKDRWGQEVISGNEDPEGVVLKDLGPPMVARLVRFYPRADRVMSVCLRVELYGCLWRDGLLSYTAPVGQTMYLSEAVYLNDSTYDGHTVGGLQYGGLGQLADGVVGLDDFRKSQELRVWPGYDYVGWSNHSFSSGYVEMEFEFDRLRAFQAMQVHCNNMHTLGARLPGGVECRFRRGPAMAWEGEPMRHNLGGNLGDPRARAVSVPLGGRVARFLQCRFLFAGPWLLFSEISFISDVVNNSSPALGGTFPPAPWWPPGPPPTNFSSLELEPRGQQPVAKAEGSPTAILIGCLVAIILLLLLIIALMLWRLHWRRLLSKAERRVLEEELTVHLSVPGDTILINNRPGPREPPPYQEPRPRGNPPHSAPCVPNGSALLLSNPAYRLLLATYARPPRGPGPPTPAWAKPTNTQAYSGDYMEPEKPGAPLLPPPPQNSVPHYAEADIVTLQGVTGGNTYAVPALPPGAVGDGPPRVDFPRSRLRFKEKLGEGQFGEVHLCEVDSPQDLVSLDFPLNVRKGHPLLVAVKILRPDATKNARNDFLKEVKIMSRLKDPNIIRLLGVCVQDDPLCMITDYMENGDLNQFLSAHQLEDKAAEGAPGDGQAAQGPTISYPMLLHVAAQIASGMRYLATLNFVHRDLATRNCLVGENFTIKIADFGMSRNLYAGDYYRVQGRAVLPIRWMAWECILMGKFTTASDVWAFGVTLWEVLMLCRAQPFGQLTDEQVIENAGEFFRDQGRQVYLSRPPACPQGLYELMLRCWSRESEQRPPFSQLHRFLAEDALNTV
# Protocol: as §1
# [3] = biological target: T3, MAP4K2 (Homo sapiens, UniProt Q12851)
# T3 construct: endogenous in cells; host or cells: K562
# T3 sequence (Q12851 1-820): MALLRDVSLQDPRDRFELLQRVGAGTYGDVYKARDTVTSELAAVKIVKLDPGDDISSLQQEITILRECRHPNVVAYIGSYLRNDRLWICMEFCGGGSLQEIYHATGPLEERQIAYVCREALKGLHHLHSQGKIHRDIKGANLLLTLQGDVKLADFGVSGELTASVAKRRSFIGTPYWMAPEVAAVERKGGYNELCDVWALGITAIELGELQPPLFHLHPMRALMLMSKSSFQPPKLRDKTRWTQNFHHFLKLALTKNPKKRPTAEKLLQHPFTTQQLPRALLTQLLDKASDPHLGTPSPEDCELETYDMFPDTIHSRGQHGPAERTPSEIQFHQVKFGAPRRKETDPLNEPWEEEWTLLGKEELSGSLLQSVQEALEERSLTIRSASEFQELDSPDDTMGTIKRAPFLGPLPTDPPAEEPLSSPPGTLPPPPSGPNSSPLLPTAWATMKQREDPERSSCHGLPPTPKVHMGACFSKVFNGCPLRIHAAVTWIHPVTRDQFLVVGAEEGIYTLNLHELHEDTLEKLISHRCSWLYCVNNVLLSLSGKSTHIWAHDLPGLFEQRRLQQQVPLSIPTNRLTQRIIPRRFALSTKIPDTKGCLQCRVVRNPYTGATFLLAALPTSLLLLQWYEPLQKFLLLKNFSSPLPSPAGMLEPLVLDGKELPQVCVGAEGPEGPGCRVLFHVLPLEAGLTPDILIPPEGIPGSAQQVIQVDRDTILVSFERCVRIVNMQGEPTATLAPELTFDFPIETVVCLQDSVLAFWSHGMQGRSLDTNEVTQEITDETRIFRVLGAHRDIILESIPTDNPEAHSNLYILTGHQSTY
# Protocol: as §1
# [4] = biological target: T4, MAPKAPK5 (Homo sapiens, UniProt Q8IW41)
# T4 construct: endogenous in cells; host or cells: K562
# T4 sequence (Q8IW41 1-473): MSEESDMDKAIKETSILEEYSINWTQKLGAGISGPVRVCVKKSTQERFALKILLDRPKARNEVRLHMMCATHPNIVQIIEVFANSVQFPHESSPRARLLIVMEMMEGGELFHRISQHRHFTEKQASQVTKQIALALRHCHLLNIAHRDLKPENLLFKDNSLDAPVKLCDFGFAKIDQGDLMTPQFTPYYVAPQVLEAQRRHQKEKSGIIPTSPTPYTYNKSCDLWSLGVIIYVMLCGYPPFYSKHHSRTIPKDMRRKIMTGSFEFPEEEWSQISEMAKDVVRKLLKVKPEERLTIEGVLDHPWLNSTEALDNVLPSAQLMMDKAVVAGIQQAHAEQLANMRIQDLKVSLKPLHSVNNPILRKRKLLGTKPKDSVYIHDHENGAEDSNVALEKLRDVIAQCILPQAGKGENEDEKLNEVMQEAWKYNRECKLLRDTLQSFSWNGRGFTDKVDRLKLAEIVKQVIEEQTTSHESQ
# Protocol: as §1
# [5] = biological target: T5, LRRK2 (Homo sapiens, UniProt Q5S007);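 for 0.001 uM KAM: median log10 fold change of treatment over DMSO control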;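 for 0.01 uM KAM: median log10 fold change of treatment over DMSO control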;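 for 0.1 uM KAM: median log10 fold change of treatment over DMSO control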;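 for 1 uM KAM: median log10 fold change of treatment over DMSO control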;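 for 10 uM KAM: median log10 fold change of treatment over DMSO control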
# T5 construct: endogenous in cells; host or cells: K562
# T5 sequence (Q5S007 whole entry): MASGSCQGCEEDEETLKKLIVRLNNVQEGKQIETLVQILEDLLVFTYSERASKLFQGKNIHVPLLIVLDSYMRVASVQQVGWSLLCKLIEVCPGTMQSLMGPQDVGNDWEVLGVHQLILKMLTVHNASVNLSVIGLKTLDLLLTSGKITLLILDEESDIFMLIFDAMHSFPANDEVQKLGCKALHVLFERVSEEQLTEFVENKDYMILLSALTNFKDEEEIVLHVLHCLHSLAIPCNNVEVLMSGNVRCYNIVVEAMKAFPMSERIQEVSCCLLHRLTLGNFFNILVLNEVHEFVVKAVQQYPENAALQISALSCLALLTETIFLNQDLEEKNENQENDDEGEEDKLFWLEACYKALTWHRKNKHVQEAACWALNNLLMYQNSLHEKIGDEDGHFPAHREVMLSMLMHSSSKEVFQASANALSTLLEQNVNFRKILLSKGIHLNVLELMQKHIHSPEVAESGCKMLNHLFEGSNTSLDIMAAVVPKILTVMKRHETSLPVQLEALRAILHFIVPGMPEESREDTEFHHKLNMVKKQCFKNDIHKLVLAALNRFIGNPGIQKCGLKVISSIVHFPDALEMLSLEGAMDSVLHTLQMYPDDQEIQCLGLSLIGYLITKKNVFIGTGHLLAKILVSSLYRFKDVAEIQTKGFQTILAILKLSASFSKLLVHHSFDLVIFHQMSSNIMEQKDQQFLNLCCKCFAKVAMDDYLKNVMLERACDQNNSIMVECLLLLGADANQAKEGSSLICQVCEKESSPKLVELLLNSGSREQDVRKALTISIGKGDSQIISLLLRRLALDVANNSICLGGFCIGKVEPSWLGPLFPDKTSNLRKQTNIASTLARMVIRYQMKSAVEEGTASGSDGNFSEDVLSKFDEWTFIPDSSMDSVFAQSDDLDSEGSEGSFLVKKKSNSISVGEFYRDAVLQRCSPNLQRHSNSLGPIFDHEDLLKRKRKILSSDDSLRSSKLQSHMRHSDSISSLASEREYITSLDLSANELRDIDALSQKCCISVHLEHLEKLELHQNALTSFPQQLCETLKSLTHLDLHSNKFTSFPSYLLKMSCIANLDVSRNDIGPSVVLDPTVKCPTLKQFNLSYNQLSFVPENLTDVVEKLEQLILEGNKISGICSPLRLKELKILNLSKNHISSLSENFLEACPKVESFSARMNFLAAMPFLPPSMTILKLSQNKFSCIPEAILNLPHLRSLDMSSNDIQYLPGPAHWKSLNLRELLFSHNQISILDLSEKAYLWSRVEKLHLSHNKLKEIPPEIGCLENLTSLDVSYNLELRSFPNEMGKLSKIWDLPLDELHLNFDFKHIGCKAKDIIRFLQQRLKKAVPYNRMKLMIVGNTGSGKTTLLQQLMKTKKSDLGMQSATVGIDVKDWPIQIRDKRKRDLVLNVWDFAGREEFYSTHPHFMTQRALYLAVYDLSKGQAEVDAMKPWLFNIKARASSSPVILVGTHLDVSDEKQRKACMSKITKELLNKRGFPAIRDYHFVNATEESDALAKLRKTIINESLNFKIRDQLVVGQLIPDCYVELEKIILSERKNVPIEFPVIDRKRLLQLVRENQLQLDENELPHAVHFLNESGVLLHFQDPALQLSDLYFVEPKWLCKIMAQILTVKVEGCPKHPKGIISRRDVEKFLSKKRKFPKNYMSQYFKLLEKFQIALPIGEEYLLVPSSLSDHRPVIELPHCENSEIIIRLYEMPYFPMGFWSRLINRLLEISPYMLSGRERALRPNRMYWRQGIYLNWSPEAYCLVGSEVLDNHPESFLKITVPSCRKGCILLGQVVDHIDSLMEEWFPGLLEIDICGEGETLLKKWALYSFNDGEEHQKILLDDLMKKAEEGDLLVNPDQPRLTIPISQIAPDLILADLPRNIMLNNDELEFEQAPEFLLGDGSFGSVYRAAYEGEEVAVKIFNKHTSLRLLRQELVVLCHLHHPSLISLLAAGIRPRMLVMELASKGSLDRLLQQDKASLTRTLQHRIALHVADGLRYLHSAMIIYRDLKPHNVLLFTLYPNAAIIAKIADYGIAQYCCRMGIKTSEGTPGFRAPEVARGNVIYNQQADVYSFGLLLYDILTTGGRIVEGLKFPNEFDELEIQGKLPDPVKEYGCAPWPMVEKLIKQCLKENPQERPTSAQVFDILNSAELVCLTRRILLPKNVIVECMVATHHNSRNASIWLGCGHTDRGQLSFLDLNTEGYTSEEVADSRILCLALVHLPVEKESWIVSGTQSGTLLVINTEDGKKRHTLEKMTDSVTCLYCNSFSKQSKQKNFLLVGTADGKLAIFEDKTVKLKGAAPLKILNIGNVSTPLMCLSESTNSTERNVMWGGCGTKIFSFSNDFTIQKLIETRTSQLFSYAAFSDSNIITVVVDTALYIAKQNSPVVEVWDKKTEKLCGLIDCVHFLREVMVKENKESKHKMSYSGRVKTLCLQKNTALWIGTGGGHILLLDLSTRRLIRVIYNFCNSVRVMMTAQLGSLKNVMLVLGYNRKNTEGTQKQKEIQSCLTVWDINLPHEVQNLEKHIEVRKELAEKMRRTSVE
# Protocol: as §1
# [6] = biological target: T6, RPS6KA1 (Homo sapiens, UniProt Q15418);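 for 0.001 uM KAM: median log10 fold change of treatment over DMSO control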;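 for 0.01 uM KAM: median log10 fold change of treatment over DMSO control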;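 for 0.1 uM KAM: median log10 fold change of treatment over DMSO control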;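 for 1 uM KAM: median log10 fold change of treatment over DMSO control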;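 for 10 uM KAM: median log10 fold change of treatment over DMSO control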
# T6 construct: endogenous in cells; host or cells: K562
# Protocol: as §1
# [7] = biological target: T7, MTOR (Homo sapiens, UniProt P42345);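 for 0.001 uM KAM: median log10 fold change of treatment over DMSO control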;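 for 0.01 uM KAM: median log10 fold change of treatment over DMSO control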;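 for 0.1 uM KAM: median log10 fold change of treatment over DMSO control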;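 for 1 uM KAM: median log10 fold change of treatment over DMSO control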;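 for 10 uM KAM: median log10 fold change of treatment over DMSO control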
# T7 construct: endogenous in cells; host or cells: K562
# Protocol: as §1
# [8] = biological target: T8, CAMKK2 (Homo sapiens, UniProt Q96RR4)
# T8 construct: endogenous in cells; host or cells: K562
# Protocol: as §1
# [9] = biological target: T9, CAMK2D (Homo sapiens, UniProt Q13557);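 for 0.001 uM KAM: median log10 fold change of treatment over DMSO control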;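 for 0.01 uM KAM: median log10 fold change of treatment over DMSO control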;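 for 0.1 uM KAM: median log10 fold change of treatment over DMSO control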;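 for 1 uM KAM: median log10 fold change of treatment over DMSO control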;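 for 10 uM KAM: median log10 fold change of treatment over DMSO control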
# T9 construct: endogenous in cells; host or cells: K562
# T9 sequence (Q13557 whole entry): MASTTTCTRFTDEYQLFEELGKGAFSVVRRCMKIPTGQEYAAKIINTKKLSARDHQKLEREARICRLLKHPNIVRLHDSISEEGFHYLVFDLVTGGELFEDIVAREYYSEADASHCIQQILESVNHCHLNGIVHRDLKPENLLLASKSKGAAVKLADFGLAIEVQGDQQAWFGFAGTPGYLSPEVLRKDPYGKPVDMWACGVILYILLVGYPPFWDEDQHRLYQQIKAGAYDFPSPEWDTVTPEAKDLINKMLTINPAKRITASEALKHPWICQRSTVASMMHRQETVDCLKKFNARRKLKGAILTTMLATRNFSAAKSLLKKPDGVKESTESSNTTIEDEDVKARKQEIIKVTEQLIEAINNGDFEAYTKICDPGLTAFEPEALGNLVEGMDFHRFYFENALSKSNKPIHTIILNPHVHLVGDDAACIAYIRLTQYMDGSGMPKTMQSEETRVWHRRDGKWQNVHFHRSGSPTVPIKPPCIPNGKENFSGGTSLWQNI
# Protocol: as §1
# [10] = biological target: T10, PRPF4B (Homo sapiens, UniProt Q13523)
# T10 construct: endogenous in cells; host or cells: K562
# T10 sequence (Q13523 whole entry): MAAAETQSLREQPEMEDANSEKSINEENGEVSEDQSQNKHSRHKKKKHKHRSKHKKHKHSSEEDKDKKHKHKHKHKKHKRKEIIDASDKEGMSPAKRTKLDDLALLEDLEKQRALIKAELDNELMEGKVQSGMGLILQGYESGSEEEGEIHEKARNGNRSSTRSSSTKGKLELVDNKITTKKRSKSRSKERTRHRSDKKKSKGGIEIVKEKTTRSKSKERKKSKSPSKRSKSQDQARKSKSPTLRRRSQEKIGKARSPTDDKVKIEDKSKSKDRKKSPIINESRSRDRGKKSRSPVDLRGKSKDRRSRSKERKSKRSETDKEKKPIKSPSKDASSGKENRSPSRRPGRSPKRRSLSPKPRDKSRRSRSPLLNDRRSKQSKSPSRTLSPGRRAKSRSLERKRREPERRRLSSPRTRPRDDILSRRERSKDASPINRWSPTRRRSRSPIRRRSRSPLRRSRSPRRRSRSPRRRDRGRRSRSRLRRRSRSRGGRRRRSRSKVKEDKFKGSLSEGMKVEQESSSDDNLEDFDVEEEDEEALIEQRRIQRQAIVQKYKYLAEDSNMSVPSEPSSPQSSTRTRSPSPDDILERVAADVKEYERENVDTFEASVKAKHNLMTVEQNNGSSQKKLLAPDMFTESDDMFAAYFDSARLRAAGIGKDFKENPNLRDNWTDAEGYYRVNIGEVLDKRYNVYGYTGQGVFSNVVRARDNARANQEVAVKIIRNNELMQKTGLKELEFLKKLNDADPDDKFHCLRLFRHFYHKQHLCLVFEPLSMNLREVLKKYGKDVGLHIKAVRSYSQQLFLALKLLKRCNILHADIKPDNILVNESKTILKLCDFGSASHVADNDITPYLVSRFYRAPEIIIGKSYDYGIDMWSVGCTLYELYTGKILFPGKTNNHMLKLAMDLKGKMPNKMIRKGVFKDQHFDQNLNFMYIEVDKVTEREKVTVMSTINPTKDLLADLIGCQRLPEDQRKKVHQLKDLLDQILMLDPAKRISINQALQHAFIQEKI
# Protocol: as §1
# [11] = biological target: T11, PAK2 (Homo sapiens, UniProt Q13177);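 for 0.001 uM KAM: median log10 fold change of treatment over DMSO control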;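 for 0.01 uM KAM: median log10 fold change of treatment over DMSO control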;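 for 0.1 uM KAM: median log10 fold change of treatment over DMSO control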;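 for 1 uM KAM: median log10 fold change of treatment over DMSO control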;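 for 10 uM KAM: median log10 fold change of treatment over DMSO control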
# T11 construct: endogenous in cells; host or cells: K562
# Protocol: as §1
# [12] = read-out: RB50 (the source's name)
# [13] = KAM 0.001-10 uM, read-out: RB50 (the source's name)
smiles,measurement,setting,value
N#CCc1ccc(Nc2nc(NCCCN)cc(Nc3cc(C4CC4)[nH]n3)n2)cc1 [KAM],median Log10 fold change,[1]; 0.001 uM KAM,-0.02555
same,median Log10 fold change,[1]; 0.01 uM KAM,-0.005343
same,median Log10 fold change,[1]; 0.1 uM KAM,-0.1851
same,median Log10 fold change,[1]; 1 uM KAM,-0.427
same,median Log10 fold change,[1]; 10 uM KAM,-0.5622
same,median Log10 fold change,[2]; 0.001 uM KAM,-0.02436
same,median Log10 fold change,[2]; 0.01 uM KAM,-0.004539
same,median Log10 fold change,[2]; 0.1 uM KAM,-0.13
same,median Log10 fold change,[2]; 1 uM KAM,-0.3025
same,median Log10 fold change,[2]; 10 uM KAM,-0.3889
same,IC50,[2]; [12],1330 nM
same,median Log10 fold change,[3]; 0.001 uM KAM,-0.01936
same,median Log10 fold change,[3]; 0.01 uM KAM,-0.0303
same,median Log10 fold change,[3]; 0.1 uM KAM,-0.2006
same,median Log10 fold change,[3]; 1 uM KAM,-0.2485
same,median Log10 fold change,[3]; 10 uM KAM,-0.341
same,IC50,[3]; [12],2230 nM
same,median Log10 fold change,[4]; 0.001 uM KAM,0.03286
same,median Log10 fold change,[4]; 0.01 uM KAM,-0.006541
same,median Log10 fold change,[4]; 0.1 uM KAM,-0.1605
same,median Log10 fold change,[4]; 1 uM KAM,-0.3604
same,median Log10 fold change,[4]; 10 uM KAM,-0.4852
same,IC50,[4]; [12],729 nM
same,IC50,[5]; [13],> 10000 nM
same,0.001 uM KAM,[5]; relative to 0 uM KAM = 0,-0.05098
same,0.01 uM KAM,[5]; relative to 0 uM KAM = 0,-0.01752
same,0.1 uM KAM,[5]; relative to 0 uM KAM = 0,0.02155
same,1 uM KAM,[5]; relative to 0 uM KAM = 0,0.06199
same,10 uM KAM,[5]; relative to 0 uM KAM = 0,-0.09009
same,IC50,[6]; [13],> 10000 nM
same,0.001 uM KAM,[6]; relative to 0 uM KAM = 0,-0.05187
same,0.01 uM KAM,[6]; relative to 0 uM KAM = 0,0.03804
same,0.1 uM KAM,[6]; relative to 0 uM KAM = 0,-0.06196
same,1 uM KAM,[6]; relative to 0 uM KAM = 0,-0.09025
same,10 uM KAM,[6]; relative to 0 uM KAM = 0,-0.1209
same,IC50,[7]; [13],> 10000 nM
same,0.001 uM KAM,[7]; relative to 0 uM KAM = 0,-0.05296
same,0.01 uM KAM,[7]; relative to 0 uM KAM = 0,-0.02855
same,0.1 uM KAM,[7]; relative to 0 uM KAM = 0,-0.0574
same,1 uM KAM,[7]; relative to 0 uM KAM = 0,-0.03577
same,10 uM KAM,[7]; relative to 0 uM KAM = 0,-0.01614
same,median Log10 fold change,[8]; 0.001 uM KAM,0.007982
same,median Log10 fold change,[8]; 0.01 uM KAM,-0.006148
same,median Log10 fold change,[8]; 0.1 uM KAM,-0.132
same,median Log10 fold change,[8]; 1 uM KAM,-0.4329
same,median Log10 fold change,[8]; 10 uM KAM,-0.5591
same,IC50,[8]; [12],553 nM
same,IC50,[9]; [13],> 10000 nM
same,0.001 uM KAM,[9]; relative to 0 uM KAM = 0,-0.03504
same,0.01 uM KAM,[9]; relative to 0 uM KAM = 0,0.05262
same,0.1 uM KAM,[9]; relative to 0 uM KAM = 0,0.01424
same,1 uM KAM,[9]; relative to 0 uM KAM = 0,-0.07545
same,10 uM KAM,[9]; relative to 0 uM KAM = 0,-0.201
same,median Log10 fold change,[10]; 0.001 uM KAM,-0.03755
same,median Log10 fold change,[10]; 0.01 uM KAM,-0.07792
same,median Log10 fold change,[10]; 0.1 uM KAM,-0.1894
same,median Log10 fold change,[10]; 1 uM KAM,-0.2633
same,median Log10 fold change,[10]; 10 uM KAM,-0.4136
same,IC50,[10]; [12],1400 nM
same,IC50,[11]; [13],> 10000 nM
same,0.001 uM KAM,[11]; relative to 0 uM KAM = 0,0.07363
same,0.01 uM KAM,[11]; relative to 0 uM KAM = 0,0.03748
same,0.1 uM KAM,[11]; relative to 0 uM KAM = 0,0.116
same,1 uM KAM,[11]; relative to 0 uM KAM = 0,0.1461
same,10 uM KAM,[11]; relative to 0 uM KAM = 0,0.07777
